# Reference: ChEMBL document CHEMBL1154506, “Discovery and development of the anticancer agent salinosporamide A (NPI-0052)” (Bioorg Med Chem, 2009)
# What was measured:
# [1] = test system: HCT-116; test: Cytotoxicity against human HCT116 cells; type: functional, cell-based
# [2] = Cytotoxicity against human NCI60 cells; type: functional
smiles,measurement,setting,value
C[C@@]12OC(=O)[C@]1([C@@H](O)[C@@H]1C=CCCC1)NC(=O)[C@@H]2CCCl [MARIZOMIB],IC50,[1],≤ 2 ng/mL
same,GI50,[2],< 10 nM
